From patent US20060046976A1, “Method for increasing the bone mineral density and bone micro-architecture or connectivity of a mammal using N-acylated glucosamines” (priority 2004, published 2006)

Tested on: SCW-arthritis rats
Test: Two-dimensional subchondral bone analysis (structure, connectivity/strut analysis, plate thickness) of proximal tibia, SCW-arthritis rats
Type: in vivo, Lewis type rats
[1] = SCW + 20 mg, Middle section/lateral
[2] = SCW + 20 mg, Middle section/medial

## CCCC(=O)N[C@H]1C(O)O[C@H](CO)[C@@H](O)[C@@H]1O (stereo partly drawn) [GlcNBu, N-butyryl-D-glucosamine]
SCW + 20 mg, Anterior/lateral
  2D-BV/TV % loss: 40%
  2D-BV/TV Mean ± SEM: 23.7 ± 2.3%
  2D-Tb.N % loss: 21%
  2D-Tb.N Mean ± SEM: 5.8 ± 0.4 /mm
  2D-Tb.Th % loss: 32%
  2D-Tb.Th Mean ± SEM: 38.7 ± 1.7 um
  End Points % loss: −134%
  End Points Mean ± SEM: 36.2 ± 2.5 1/mm2
  Multiple points % loss: 43%
  Multiple points Mean ± SEM: 9.3 ± 1.6 1/mm2
  Node-node struts % loss: 75%
  Node-node struts Mean ± SEM: 0.8 ± 0.2 mm/mm2
  Total Strut length % loss: 30%
  Total Strut length Mean ± SEM: 5.3 ± 0.4 mm/mm2
SCW + 20 mg, Anterior/medial
  2D-BV/TV % loss: 33%
  2D-BV/TV Mean ± SEM: 27.2 ± 1.4%
  2D-Tb.N % loss: 12%
  2D-Tb.N Mean ± SEM: 5.6 ± 0.3 /mm
  2D-Tb.Th % loss: 29%
  2D-Tb.Th Mean ± SEM: 48.6 ± 1.6 um
  End Points % loss: −67%
  End Points Mean ± SEM: 22.5 ± 1.7 1/mm2
  Multiple points % loss: 42%
  Multiple points Mean ± SEM: 9.2 ± 1.0 1/mm2
  Node-node struts % loss: 47%
  Node-node struts Mean ± SEM: 1.2 ± 0.2 mm/mm2
  Total Strut length % loss: 14%
  Total Strut length Mean ± SEM: 5.1 ± 0.3 mm/mm2
[1]
  2D-BV/TV % loss: 13%
  2D-BV/TV Mean ± SEM: 24.9 ± 1.6%
  2D-Tb.N % loss: 2%
  2D-Tb.N Mean ± SEM: 4.6 ± 0.2 /mm
  2D-Tb.Th % loss: 11%
  2D-Tb.Th Mean ± SEM: 54.3 ± 2.8 um
  End Points % loss: −69%
  End Points Mean ± SEM: 17.5 ± 1.9 1/mm2
  Multiple points % loss: 16%
  Multiple points Mean ± SEM: 8.3 ± 1.1 1/mm2
  Node-node struts % loss: 3%
  Node-node struts Mean ± SEM: 1.0 ± 0.2 mm/mm2
  Total Strut length % loss: 14%
  Total Strut length Mean ± SEM: 4.0 ± 0.2 mm/mm2
[2]
  2D-BV/TV % loss: 31%
  2D-BV/TV Mean ± SEM: 29.2 ± 2.3%
  2D-Tb.N % loss: 1%
  2D-Tb.N Mean ± SEM: 4.6 ± 0.2 /mm
  2D-Tb.Th % loss: 30%
  2D-Tb.Th Mean ± SEM: 63.0 ± 4.0 um
  End Points % loss: −184%
  End Points Mean ± SEM: 14.1 ± 2.3 1/mm2
  Multiple points % loss: 13%
  Multiple points Mean ± SEM: 9.9 ± 1.1 1/mm2
  Node-node struts % loss: 42%
  Node-node struts Mean ± SEM: 1.2 ± 0.2 mm/mm2
  Total Strut length % loss: 11%
  Total Strut length Mean ± SEM: 4.2 ± 0.3 mm/mm2
SCW + 20 mg, Posterior/lateral
  2D-BV/TV % loss: 21%
  2D-BV/TV Mean ± SEM: 24.9 ± 1.5%
  2D-Tb.N % loss: 7%
  2D-Tb.N Mean ± SEM: 4.8 ± 0.2 /mm
  2D-Tb.Th % loss: 19%
  2D-Tb.Th Mean ± SEM: 51.8 ± 1.6 um
  End Points % loss: −100%
  End Points Mean ± SEM: 20.0 ± 1.8 1/mm2
  Multiple points % loss: 55%
  Multiple points Mean ± SEM: 7.8 ± 0.8 1/mm2
  Node-node struts % loss: 30%
  Node-node struts Mean ± SEM: 0.9 ± 0.1 mm/mm2
  Total Strut length % loss: 11%
  Total Strut length Mean ± SEM: 4.3 ± 0.2 mm/mm2
SCW + 20 mg, Posterior/medial
  2D-BV/TV % loss: 20%
  2D-BV/TV Mean ± SEM: 36.2 ± 1.6%
  2D-Tb.N % loss: 3%
  2D-Tb.N Mean ± SEM: 6.2 ± 0.2 /mm
  2D-Tb.Th % loss: 23%
  2D-Tb.Th Mean ± SEM: 59.3 ± 2.3 um
  End Points % loss: −216%
  End Points Mean ± SEM: 16.2 ± 2.1 1/mm2
  Multiple points % loss: 36%
  Multiple points Mean ± SEM: 12.6 ± 1.4 1/mm2
  Node-node struts % loss: 37%
  Node-node struts Mean ± SEM: 1.7 ± 0.3 mm/mm2
  Total Strut length % loss: 10%
  Total Strut length Mean ± SEM: 5.7 ± 0.3 mm/mm2
SCW + 200 mg, Anterior/lateral
  2D-BV/TV % loss: 37%
  2D-BV/TV Mean ± SEM: 24.8 ± 3.4%
  2D-Tb.N % loss: 20%
